Assay results as given in patent US6727264B1 (Synaptic Pharmaceutical Corporation, priority 2001, dated 2004).

target: rat MCH-1 (Rattus norvegicus, UniProt P97639); experiment: Radioligand binding assay at cloned rat MCH1 receptor ([3H] Compound A); set-up: host or cells: Peak rapid 293 (Peakr293) cells, transient calcium phosphate transfection, membranes; details: cloned rat MCH1 receptor; 0.08 nM [3H] Compound A; Peakr293 cell membranes; read-out: Ki (nM) rMCH1
Sequence (P97639 whole entry): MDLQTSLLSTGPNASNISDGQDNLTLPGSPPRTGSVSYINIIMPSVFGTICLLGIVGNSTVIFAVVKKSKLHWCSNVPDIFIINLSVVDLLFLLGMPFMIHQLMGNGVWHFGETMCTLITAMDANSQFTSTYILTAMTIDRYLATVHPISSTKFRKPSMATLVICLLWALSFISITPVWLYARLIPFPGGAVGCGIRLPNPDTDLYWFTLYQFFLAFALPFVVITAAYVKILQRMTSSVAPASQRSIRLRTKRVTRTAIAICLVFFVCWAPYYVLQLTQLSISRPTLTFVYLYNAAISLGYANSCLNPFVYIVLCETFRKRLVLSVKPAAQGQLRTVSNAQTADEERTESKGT

SMILES | Ki [nM]
CC(C)C(=O)Nc1cccc(C2CCN(Cc3cccc4c3ccn4-c3ccccn3)CC2)c1 [Example 870] | 167
CC(C)C(=O)Nc1cccc(C2CCN(Cc3cccc4c3ccn4-c3ccccc3F)CC2)c1 [Example 871] | 252
CC(C)C(=O)Nc1cccc(C2CCN(Cc3cccc4c3ccn4-c3ccc(Cl)cc3)CC2)c1 [Example 872] | 306
CC(C)C(=O)Nc1cccc(C2CCN(Cc3cccc4c3ccn4-c3cccnc3)CC2)c1 [Example 873] | 345
Cc1cccc(-n2ccc3c(CN4CCC(c5cccc(NC(=O)C(C)C)c5)CC4)cccc32)c1C [Example 874] | 247
CC(C)C(=O)Nc1cccc(C2CCN(Cc3cccc4c3ccn4-c3cccc(F)c3)CC2)c1 [Example 875] | 130
CC(C)C(=O)Nc1cccc(C2CCN(Cc3cccc4c3ccn4-c3ccccc3C(F)(F)F)CC2)c1 [Example 876] | 758
CC(C)C(=O)Nc1cccc(C2CCN(Cc3cccc4c3ccn4-c3ccccc3Cl)CC2)c1 [Example 877] | 245
Cc1cccc(-n2ccc3cccc(CN4CCC(c5cccc(NC(=O)C(C)C)c5)CC4)c32)c1C [Example 878] | 169
CC(=O)c1cccc(OC(CCCCCN2CCC(c3cccc(NC(=O)C(C)C)c3)CC2)c2ccccc2F)c1 (stereo not shown) [Example 888] | 19.8
CC(C)C(=O)Nc1cccc(C2CCN(CCCCCC(Oc3ccccc3F)c3ccccc3F)CC2)c1 (stereo not shown) [Example 889] | 8.6
CC(C)C(=O)Nc1cccc(C2CCN(CCCCCC(Oc3ccc(F)cc3)c3ccccc3F)CC2)c1 (stereo not shown) [Example 890] | 11.1
COc1ccccc1OC(CCCCCN1CCC(c2cccc(NC(=O)C(C)C)c2)CC1)c1ccccc1F (stereo not shown) [Example 891] | 6.5
COc1ccc(OC(CCCCCN2CCC(c3cccc(NC(=O)C(C)C)c3)CC2)c2ccccc2F)cc1 (stereo not shown) [Example 892] | 17.3
CC(=O)c1ccc(OC(CCCCCN2CCC(c3cccc(NC(=O)C(C)C)c3)CC2)c2ccccc2F)cc1 (stereo not shown) [Example 893] | 23
COc1ccc(OC(CCCCCN2CCC(c3cccc(NC(=O)C(C)C)c3)CC2)c2ccccc2F)cc1OC (stereo not shown) [Example 894] | 41.7
CCOc1ccccc1OC(CCCCCN1CCC(c2cccc(NC(=O)C(C)C)c2)CC1)c1ccccc1F (stereo not shown) [Example 895] | 6.4
CC(C)C(=O)Nc1cccc(C2CCN(CCCCCC(Oc3ccc(Br)cc3)c3ccccc3)CC2)c1 (stereo not shown) [Example 896] | 30.3
CC(C)C(=O)Nc1cccc(C2CCN(CCCCCC(Oc3ccc(F)cc3)c3ccc(F)cc3)CC2)c1 (stereo not shown) [Example 897] | 6.4
COc1ccc(OC(CCCCCN2CCC(c3cccc(NC(=O)C(C)C)c3)CC2)c2ccccc2)cc1 (stereo not shown) [Example 898] | 33.7
CC(C)C(=O)Nc1cccc(C2CCN(CCCCCC(Oc3ccc(Cl)cc3)c3ccc(Cl)cc3)CC2)c1 (stereo not shown) [Example 899] | 18
CC(C)C(=O)Nc1cccc(C2CCN(CCCCCC(Oc3ccc(Br)cc3)c3ccc(F)cc3)CC2)c1 (stereo not shown) [Example 900] | 11.2
CC(C)C(=O)Nc1cccc(C2CCN(CCCCCC(Oc3ccc(Cl)cc3)c3ccc(F)cc3)CC2)c1 (stereo not shown) [Example 901] | 8.2
CC(C)C(=O)Nc1cccc(C2CCN(CCCCCC(Oc3ccc(F)cc3)c3ccc(Cl)cc3)CC2)c1 (stereo not shown) [Example 902] | 11

SMILES | Ki [nM]
CC(=O)c1cccc(OC(CCCCCN2CCC(c3cccc(NC(=O)C(C)C)c3)CC2)c2ccccc2)c1 (stereo not shown) [Example 903] | 12.2
CC(C)C(=O)Nc1cccc(C2CCN(CCCCCC(Oc3ccc(Cl)cc3)c3ccccc3)CC2)c1 (stereo not shown) [Example 904] | 14.2
CC(C)C(=O)Nc1cccc(C2CCN(CCCCCC(Oc3ccc(Br)cc3)c3ccc(Cl)cc3)CC2)c1 (stereo not shown) [Example 905] | 5.9
COc1ccc(OC(CCCCCN2CCC(c3cccc(NC(=O)C(C)C)c3)CC2)c2ccc(Cl)cc2)cc1 (stereo not shown) [Example 906] | 5.7
COc1ccc(OC(CCCCCN2CCC(c3cccc(NC(=O)C(C)C)c3)CC2)c2ccc(F)cc2)cc1 (stereo not shown) [Example 907] | 3.1
CC(=O)c1cccc(OC(CCCCCN2CCC(c3cccc(NC(=O)C(C)C)c3)CC2)c2ccc(F)cc2)c1 (stereo not shown) [Example 908] | 3.7
CC(C)C(=O)Nc1cccc(C2CCN(CCCCCC(Oc3ccc(F)cc3)c3ccccc3)CC2)c1 (stereo not shown) [Example 909] | 10
CC(=O)c1ccccc1OC(CCCCCN1CCC(c2cccc(NC(=O)C(C)C)c2)CC1)c1ccccc1F (stereo not shown) [Example 910] | 10.1
CC(C)C(=O)Nc1cccc(C2CCN(CCCCCC(Oc3cc(C(F)(F)F)ccc3F)c3ccc(F)cc3)CC2)c1 (stereo not shown) [Example 911] | 7.6
CC(=O)c1cccc(OC(CCCCCN2CCC(c3cccc(NC(=O)C(C)C)c3)CC2)c2ccc(Cl)cc2)c1 (stereo not shown) [Example 912] | 5.7
CC(C)C(=O)Nc1cccc(C2CCN(CCCCCC(Oc3cc(C(F)(F)F)ccc3F)c3ccccc3F)CC2)c1 (stereo not shown) [Example 913] | 12.9
CC(C)C(=O)Nc1cccc(C2CCN(CCCCCC(Oc3cc(C(F)(F)F)ccc3F)c3ccc(Cl)cc3)CC2)c1 (stereo not shown) [Example 914] | 17.3
CC(C)C(=O)Nc1cccc(C2CCN(CCCCCC(Oc3cc(C(F)(F)F)ccc3F)c3cccc(F)c3)CC2)c1 (stereo not shown) [Example 915] | 22.6
CC(C)C(=O)Nc1cccc(C2CCN(CCCCCC(Oc3cc(C(F)(F)F)ccc3F)c3ccccc3)CC2)c1 (stereo not shown) [Example 916] | 20.2
CC(C)C(=O)Nc1cccc(C2CCN(CCCCCCC(Oc3cc(C(F)(F)F)ccc3F)c3ccccc3F)CC2)c1 (stereo not shown) [Example 917] | 78
COc1ccc(OC(CCCCN2CCC(c3cccc(NC(=O)C(C)C)c3)CC2)c2ccc(F)cc2)cc1 (stereo not shown) [Example 918] | 29.3
CC(C)C(=O)Nc1cccc(C2CCN(CCCCC(Oc3ccc(Br)cc3)c3ccc(F)cc3)CC2)c1 (stereo not shown) [Example 919] | 14
CC(C)C(=O)Nc1cccc(C2CCN(CCCCC(Oc3ccc(Cl)cc3)c3ccc(Cl)cc3)CC2)c1 (stereo not shown) [Example 920] | 6.9
CC(C)C(=O)Nc1cccc(C2CCN(CCCCC(Oc3ccc(Cl)cc3)c3ccccc3)CC2)c1 (stereo not shown) [Example 921] | 6.8
CC(=O)c1cccc(OC(CCCCN2CCC(c3cccc(NC(=O)C(C)C)c3)CC2)c2ccc(F)cc2)c1 (stereo not shown) [Example 922] | 25
CC(C)C(=O)Nc1cccc(C2CCN(CCCCC(Oc3ccc(F)cc3)c3ccc(Cl)cc3)CC2)c1 (stereo not shown) [Example 923] | 1.3
CC(C)C(=O)Nc1cccc(C2CCN(CCCCC(Oc3ccc(Br)cc3)c3ccccc3)CC2)c1 (stereo not shown) [Example 924] | 13.1
COc1ccc(OC(CCCCN2CCC(c3cccc(NC(=O)C(C)C)c3)CC2)c2ccc(Cl)cc2)cc1 (stereo not shown) [Example 925] | 13.4
CC(C)C(=O)Nc1cccc(C2CCN(CCCCC(Oc3ccc(F)cc3)c3ccc(F)cc3)CC2)c1 (stereo not shown) [Example 926] | 1.4

SMILES | Ki [nM]
CC(=O)c1cccc(OC(CCCCN2CCC(c3cccc(NC(=O)C(C)C)c3)CC2)c2ccccc2)c1 (stereo not shown) [Example 927] | 60.7
COc1ccc(OC(CCCCN2CCC(c3cccc(NC(=O)C(C)C)c3)CC2)c2ccccc2)cc1 (stereo not shown) [Example 928] | 14.9
CC(C)C(=O)Nc1cccc(C2CCN(CCCCC(Oc3cc(C(F)(F)F)ccc3F)c3ccc(C(F)(F)F)cc3)CC2)c1 (stereo not shown) [Example 929] | 29.9
CC(C)C(=O)Nc1cccc(C2CCN(CCCCC(Oc3cc(C(F)(F)F)ccc3F)c3cccc(Cl)c3)CC2)c1 (stereo not shown) [Example 930] | 14.6
CC(C)C(=O)Nc1cccc(C2CCN(CCCCC(Oc3cc(C(F)(F)F)ccc3F)c3ccccc3F)CC2)c1 (stereo not shown) [Example 931] | 9.6
CC(C)C(=O)Nc1cccc(C2CCN(CCCCC(Oc3cc(C(F)(F)F)ccc3F)c3cccc(F)c3)CC2)c1 (stereo not shown) [Example 932] | 9.4
CC(=O)c1cccc(OC(CCCCN2CCC(c3cccc(NC(=O)C(C)C)c3)CC2)c2ccc(Cl)cc2)c1 (stereo not shown) [Example 933] | 10.9
CC(C)C(=O)Nc1cccc(C2CCN(CCCCC(Oc3cc(C(F)(F)F)ccc3F)c3ccc(Cl)cc3)CC2)c1 (stereo not shown) [Example 934] | 12.3
CC(C)C(=O)Nc1cccc(C2CCN(CCCCC(Oc3cc(C(F)(F)F)ccc3F)c3ccc(F)cc3)CC2)c1 (stereo not shown) [Example 935] | 19.7
CC(C)C(=O)Nc1cccc(C2CCN(CCCCC(Oc3ccc(Br)cc3)c3ccc(Cl)cc3)CC2)c1 (stereo not shown) [Example 936] | 11.6
CC(C)C(=O)Nc1cccc(C2CCN(CCCCC(Oc3ccc(Cl)cc3)c3ccc(F)cc3)CC2)c1 (stereo not shown) [Example 937] | 28.4
CC(=O)c1ccccc1OC(CCCCN1CCC(c2cccc(NC(=O)C(C)C)c2)CC1)c1ccccc1 (stereo not shown) [Example 938] | 609
CCOc1ccccc1OC(CCCCN1CCC(c2cccc(NC(=O)C(C)C)c2)CC1)c1ccccc1 (stereo not shown) [Example 939] | 62
CC(C)C(=O)Nc1cccc(C2CCN(CCCCC(Oc3ccc(F)cc3)c3ccccc3)CC2)c1 (stereo not shown) [Example 940] | 1.8
CC(C)C(=O)Nc1cccc(C2CCN(CCCC(=O)c3ccc(F)cc3)CC2)c1 [Example 941] | 15.2
CC(C)C(=O)Nc1cccc(C2CCN(CCCc3cc[nH]c3)CC2)c1 [Example 942] | 188
CC(C)C(=O)Nc1cccc(C2CCN(CCCC(=O)c3ccc(C(C)C)cc3)CC2)c1 [Example 943] | 102
COc1ccc(C(=O)CCCN2CCC(c3cccc(NC(=O)C(C)C)c3)CC2)cc1 [Example 944] | 38.8
Cc1ccc(C(=O)CCCN2CCC(c3cccc(NC(=O)C(C)C)c3)CC2)cc1 [Example 945] | 31.2
CC(C)C(=O)Nc1cccc(C2CCN(CCCC(=O)c3ccc(C(C)(C)C)cc3)CC2)c1 [Example 946] | 337
CC(C)C(=O)Nc1cccc(C2CCN(CCCC(=O)c3ccc(Br)cc3)CC2)c1 [Example 947] | 4.3
CC(C)C(=O)Nc1cccc(C2CCN(CCCC(=O)c3cccs3)CC2)c1 [Example 948] | 21.2
